In ChEMBL document CHEMBL1133449 (J Med Chem, 2000):

Experiments:
[1] = molecular target: Acetylcholinesterase (Homo sapiens, UniProt P22303)
Description: Inhibition of acetylcholinesterase isolated from Human erythrocytes.

[2] = molecular target: Cholinesterase (Homo sapiens, UniProt P06276)
Description: Inhibition of butyrylcholinesterase (BChE) in human serum

[3] = molecular target: Cholinesterases; ACHE & BCHE (Homo sapiens) (UniProt P06276+P22303); assay: Ratio between IC50 of human BChE and human AChE; type: protein assay
[4] = Compound was evaluated for the antagonism index at 1 uM; type: functional
[5] = molecular target: T1, Acetylcholinesterase (Bos taurus, UniProt P23795)
T1 sequence (P23795 whole entry): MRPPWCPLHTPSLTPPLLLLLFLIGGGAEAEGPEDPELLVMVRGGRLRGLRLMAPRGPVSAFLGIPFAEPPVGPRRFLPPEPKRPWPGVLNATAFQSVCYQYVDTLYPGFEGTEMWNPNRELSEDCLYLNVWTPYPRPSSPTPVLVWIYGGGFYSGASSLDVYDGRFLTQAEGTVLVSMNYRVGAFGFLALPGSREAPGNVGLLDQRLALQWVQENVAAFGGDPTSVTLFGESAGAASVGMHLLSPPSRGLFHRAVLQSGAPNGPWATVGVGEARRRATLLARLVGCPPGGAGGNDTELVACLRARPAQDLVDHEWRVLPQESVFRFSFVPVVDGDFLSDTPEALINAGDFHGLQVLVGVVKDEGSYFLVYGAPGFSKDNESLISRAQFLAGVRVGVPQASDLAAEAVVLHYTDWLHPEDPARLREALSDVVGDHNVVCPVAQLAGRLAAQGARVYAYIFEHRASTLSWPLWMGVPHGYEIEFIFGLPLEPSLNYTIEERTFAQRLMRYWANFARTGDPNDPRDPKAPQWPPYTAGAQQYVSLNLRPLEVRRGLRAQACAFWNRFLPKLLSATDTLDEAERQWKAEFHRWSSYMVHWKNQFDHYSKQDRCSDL

[6] = molecular target: T1, Acetylcholinesterase; remark: listed apart in the source
Description: Compound was evaluated for the inhibition of acetylcholinesterase activity from bovine erythrocytes after 0 minutes of incubation

[7] = molecular target: T1, Acetylcholinesterase; remark: listed apart in the source
Description: Compound was evaluated for the inhibition of acetylcholinesterase of bovine erythrocytes

[8] = Compound was evaluated for the antagonism index 10 uM; NR is No Reversion.; type: functional
[9] = Compound was evaluated for the antagonism index 10 uM; NR ismNo reversion; type: functional

Chain of Cholinesterase (P06276 whole entry): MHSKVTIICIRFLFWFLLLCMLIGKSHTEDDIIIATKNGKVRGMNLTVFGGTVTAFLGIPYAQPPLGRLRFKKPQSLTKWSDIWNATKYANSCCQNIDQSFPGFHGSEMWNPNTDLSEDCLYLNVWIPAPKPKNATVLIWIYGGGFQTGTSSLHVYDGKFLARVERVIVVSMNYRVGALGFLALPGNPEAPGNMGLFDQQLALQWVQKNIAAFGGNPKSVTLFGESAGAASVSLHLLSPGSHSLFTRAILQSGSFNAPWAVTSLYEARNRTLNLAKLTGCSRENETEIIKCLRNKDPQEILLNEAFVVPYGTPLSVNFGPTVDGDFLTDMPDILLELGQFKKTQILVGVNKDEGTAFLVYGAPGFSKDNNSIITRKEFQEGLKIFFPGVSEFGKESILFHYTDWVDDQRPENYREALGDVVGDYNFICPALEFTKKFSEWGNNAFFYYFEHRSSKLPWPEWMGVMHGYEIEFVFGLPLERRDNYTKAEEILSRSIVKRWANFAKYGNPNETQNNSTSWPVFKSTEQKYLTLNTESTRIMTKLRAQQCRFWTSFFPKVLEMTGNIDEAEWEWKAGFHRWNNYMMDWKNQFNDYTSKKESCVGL
Chain of Cholinesterases; ACHE & BCHE (Homo sapiens) (P06276 whole entry, looked up): as the sequence (P06276 whole entry) above
Chain of Cholinesterases; ACHE & BCHE (Homo sapiens) (P22303 whole entry, looked up): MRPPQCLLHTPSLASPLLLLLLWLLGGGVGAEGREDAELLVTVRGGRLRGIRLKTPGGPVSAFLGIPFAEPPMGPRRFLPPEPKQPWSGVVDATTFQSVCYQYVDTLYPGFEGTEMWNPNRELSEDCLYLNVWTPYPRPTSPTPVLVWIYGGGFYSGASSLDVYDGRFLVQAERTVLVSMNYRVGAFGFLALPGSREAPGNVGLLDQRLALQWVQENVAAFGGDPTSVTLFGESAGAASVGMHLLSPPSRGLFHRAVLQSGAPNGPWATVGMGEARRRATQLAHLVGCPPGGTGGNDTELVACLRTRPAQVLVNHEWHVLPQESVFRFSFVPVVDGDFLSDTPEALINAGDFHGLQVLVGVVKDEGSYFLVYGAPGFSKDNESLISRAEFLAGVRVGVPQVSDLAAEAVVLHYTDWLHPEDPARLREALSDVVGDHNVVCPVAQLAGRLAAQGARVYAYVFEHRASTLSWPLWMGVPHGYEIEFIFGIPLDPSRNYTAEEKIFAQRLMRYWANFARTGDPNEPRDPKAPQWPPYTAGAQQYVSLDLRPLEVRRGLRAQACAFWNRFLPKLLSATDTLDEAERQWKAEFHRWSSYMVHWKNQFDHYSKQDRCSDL
Chain of Acetylcholinesterase (Homo sapiens, UniProt P22303) (P22303 whole entry): as the sequence (P22303 whole entry, looked up) above

Row | SMILES | IC50 [1] | IC50 [2] | IC50 [7] | also measured
1 | CCC1=CC2Cc3nc4cccc(Cl)c4c(N)c3C(C1)C2 (stereo not drawn) | 11.7 nM | 331 nM |  | 
2 | CC1=C[C@@H]2Cc3nc4cc(F)ccc4c(N)c3[C@H](C1)C2 | 4.58 nM |  |  | Ratio [3]: 43
3 | CC1=CC2Cc3nc4cc(Cl)ccc4c(N)c3C(C1)C2 (racemic; (+)) |  |  |  | inhibition [4]: 22.1%
4 | CC1=CC2Cc3nc4cc(Cl)ccc4c(N)c3C(C1)C2 (racemic; (-)) [HUPRINE Y] |  | 247 nM | 1.15 nM | IC50 [5]: 0.0245 nM; IC50 [6]: 3.03 nM
5 | CCC1=CC2Cc3nc4cc(C)cc(C)c4c(N)c3C(C1)C2 (stereo not drawn) | 4.96 nM | 32.6 nM | 3.59 nM | Ratio [3]: 6.57
6 | CC1=CC2Cc3nc4cccc(F)c4c(N)c3C(C1)C2 (stereo not drawn) | 35.4 nM |  |  | Ratio [3]: 15.3
7 | CCC1=CC2Cc3nc4cc(C)ccc4c(N)c3C(C1)C2 (stereo not drawn) |  |  |  | NR [8]: No reversion
8 | CC1=CC2Cc3nc4cc(F)cc(F)c4c(N)c3C(C1)C2 (stereo not drawn) | 2.2 nM | 963 nM |  | Ratio [3]: 438
9 | CC1=CC2Cc3nc4cc(Cl)ccc4c(N)c3C(C1)C2 (racemic; (+)) [HUPRINE Y] |  | 153 nM | 65 nM | 
10 | CCC1=CC2Cc3nc4cc(F)cc(F)c4c(N)c3C(C1)C2 (stereo not drawn) | 1.76 nM | 194 nM | 2.62 nM | 
11 | CCC1=CC2Cc3nc4cc(Cl)ccc4c(N)c3[C@@H](C1)C2 (mixture of isomers; (+)) |  |  |  | NR [9]: No reversion
12 | CCC1=CC2Cc3nc4cc(Cl)cc(Cl)c4c(N)c3C(C1)C2 (stereo not drawn) | 1.39 nM | 1210 nM | 39.6 nM | 
13 | CCC1=CC2Cc3nc4cc(Cl)ccc4c(N)c3[C@@H](C1)C2 (mixture of isomers; (-)) [HUPRINE X] | 0.32 nM | 159 nM | 1.3 nM | IC50 [5]: 0.0674 nM; IC50 [6]: 2.31 nM
14 | CCC1=CC2Cc3nc4cc(Cl)ccc4c(N)c3[C@@H](C1)C2 (mixture of isomers; (+)) [HUPRINE X] | 23.1 nM | 58.3 nM | 402 nM | IC50 [5]: 350 nM; IC50 [6]: 240 nM
15 | C/C=C1\[C@H]2C=C(C)C[C@]1(N)c1ccc(=O)[nH]c1C2 [HUPERZINE A] |  | > 10000 nM |  | 
16 | CC1=CC2Cc3nc4cc(Cl)ccc4c(N)c3C(C1)C2 (stereo in doubt) [HUPRINE Y] |  | 236 nM | 4.23 nM | IC50 [5]: 0.64 nM; IC50 [6]: 3.1 nM
17 | CCC1=CC2Cc3nc4cc(Cl)ccc4c(N)c3[C@@H](C1)C2 (stereo in doubt) [HUPRINE X] | 0.75 nM | 15.8 nM | 2.77 nM | IC50 [5]: 0.23 nM; IC50 [6]: 3.34 nM
